The test system of data set [1] is Artemia. The experiment in a line: (§1) Toxicity to brine shrimp. The data set is classed as organism-based. The note with it: in vivo.
Data set [2] deals with Aedes aegypti. As to the kind of experiment: Insecticidal activity against yellow fever mosquito larvae by microtiter plate assay. The data set is classed as functional.
For data set [3], the system named is A549. As to the kind of experiment: Cytotoxicity against human A549 cells after 7 days by MTT assay. The format is functional. The note with it: for EC50: Homo sapiens, A549, 168 h, read-out: ED50 (the source's name). In general terms: Formazan colour is commonly taken as a measure of viable cells.
Data set [4] relates to MCF7. As to the kind of experiment: Cytotoxicity against human MCF7 cells after 7 days by MTT assay. The data set is classed as functional. The note with it: MCF7, 168 h, read-out: ED50 (the source's name).
Data set [5] concerns HT-29. The experiment in a line: Cytotoxicity against human HT29 cells after 7 days by MTT assay. The data set is classed as functional. The note with it: HT-29, 168 h, read-out: ED50 (the source's name).
For data set [6], the system named is A498. The experiment in a line: Cytotoxicity against human A498 cells after 7 days by MTT assay. The data set is classed as functional. The note with it: A498, 168 h, read-out: ED50 (the source's name).
Data set [7] concerns PC-3. The experiment in a line: Cytotoxicity against human PC3 cells after 7 days by MTT assay. The format is functional. The note with it: PC-3, 168 h, read-out: ED50 (the source's name).
Data set [8] concerns MIA PaCa-2. The experiment in a line: Cytotoxicity against human MIAPaCa2 cells after 7 days by MTT assay. The data set is classed as functional. The note with it: MIA PaCa-2, 168 h, read-out: ED50 (the source's name).
The nature of data set [9]: as §1. The format is organism-based. The note with it: artemia, in vivo.

In brackets after ≈: the same amount, converted by molar mass.

For `CCCCCCCCCCCC[C@@H](O)[C@H]1CC[C@H]([C@H](O)CC[C@H](O)[C@@H]2CC[C@@H](CCCCCCCC3=C[C@H](C)OC3=O)O2)O1`, the LC50 in data set [1] was found to be 0.04 ppm; in [2], 0.68 µg/mL (≈ 1.09 µM). In addition, the EC50 in data set [3] turned out to be 0.131 µg/mL (≈ 0.21 µM); in data set [4] it was 1 µg/mL (≈ 1.61 µM); in [5], 0.143 µg/mL (≈ 0.23 µM); in data set [6], 0.328 µg/mL (≈ 0.527 µM); in data set [7] it was 0.15 µg/mL (≈ 0.241 µM); in data set [8] it was 0.393 µg/mL (≈ 0.631 µM).

Turning to `CCCCCCCCCCCC[C@@H](O)[C@H]1CC[C@H]([C@H]2CC[C@@H]([C@@H]3CC[C@@H](CCCCCCCC4=C[C@H](C)OC4=O)O3)OCO2)O1`, the EC50 was 0.0382 µg/mL (≈ 0.0602 µM) in data set [3]; 0.495 µg/mL (≈ 0.78 µM) in [4]; 0.183 µg/mL (≈ 0.288 µM) in [5]; 0.162 µg/mL (≈ 0.255 µM) in data set [6]; 0.132 µg/mL (≈ 0.208 µM) in data set [7]; 0.217 µg/mL (≈ 0.342 µM) in [8].

Consider `CCCCCCCCCCCC[C@@H](O)[C@H]1CC[C@H]([C@H](O)CC[C@H](O)[C@@H]2CC[C@@H](CCCCC[C@@H]3CC(CC(C)=O)C(=O)O3)O2)O1` (some centres undefined), for which the LC50 worked out at 3.27 ppm in [1] and 0.27 µg/mL (≈ 0.423 µM) in data set [2]. Also, the EC50 was 0.214 µg/mL (≈ 0.335 µM) in [3]; over 1 µg/mL in data set [4]; over 1 µg/mL in [5]; 0.212 µg/mL (≈ 0.332 µM) in data set [6]; 0.00108 µg/mL (≈ 0.00169 µM) in data set [7]; over 1 µg/mL in [8].

Consider `CCCCCCCCCCCC[C@@H](O)[C@H]1CC[C@H]([C@H]2CC[C@@H]([C@@H]3CC[C@@H](CCCCC[C@@H]4CC(CC(C)=O)C(=O)O4)O3)OCO2)O1` (mixture of isomers), for which the EC50 in data set [3] is 0.252 µg/mL; in data set [4], over 1 µg/mL; in data set [5], over 1 µg/mL; in [6] it was 0.271 µg/mL; in data set [7] it was 0.00306 µg/mL; in [8] it was over 1 µg/mL.

Take `COc1cccc2c1C(=O)c1c(O)c3c(c(O)c1C2=O)C[C@@](O)(C(=O)CO)C[C@@H]3O[C@H]1C[C@H](N)[C@H](O)[C@H](C)O1` [DOXORUBICIN]: the EC50 in data set [3] came to 0.00393 µg/mL (≈ 0.00723 µM); in [4] it was 0.369 µg/mL (≈ 0.679 µM); in [5], 0.725 µg/mL (≈ 1.33 µM); in data set [6], 0.113 µg/mL (≈ 0.208 µM); in [7], 0.0146 µg/mL (≈ 0.0269 µM); in data set [8] it was 0.00142 µg/mL (≈ 0.00261 µM).

As for `CCCCCCCCCCCC[C@@H](O)[C@H]1CC[C@H]([C@H](O)CC[C@H](O)[C@@H]2CC[C@@H](CCCCC[C@@H](O)CC3=C[C@H](C)OC3=O)O2)O1` [GIGANTECIN], the LC50 in [9] worked out at 222 µg/mL (≈ 347 µM). In [3], the ED50 is recorded as 2.19 ×10⁻⁷ ug/ml. For the same compound, the values for the EC50 in data set [4] and in data set [5] were 0.411 µg/mL (≈ 0.643 µM) and 0.268 µg/mL (≈ 0.419 µM), respectively.

In data set [2], `C=C(C)[C@H]1Cc2c(ccc3c2O[C@@H]2COc4cc(OC)c(OC)cc4[C@@H]2C3=O)O1` [ROTENONE] returned an LC50 of 0.75 µg/mL (≈ 1.9 µM).

What is called LC50 is the concentration that kills 50% of the test population.

The values above are taken from ChEMBL document CHEMBL1158858, “(2,4-cis and trans)-gigantecinone and 4-deoxygigantecin, bioactive nonadjacent bis-tetrahydrofuran annonaceous acetogenins, from Goniothalamus giganteus” (J Nat Prod, 1997).
